Test results: patent US20040235794A1, “Remedies for respiratory diseases comprising sphingosine-1-phosphate receptor controller” (priority 2001, published 2004)

Legend:
human EDG-1 = target: T1, human EDG-1 (Homo sapiens, UniProt P21453); assay: Antagonistic activity for EDG-1 (S1P-induced intracellular calcium, CHO cells); assay type: cell-based; settings: CHO cells expressing human EDG-1, S1P 100 nM
T1 construct: expressed in transfected cells; host or cells: CHO inferred from 'method as in EDG-5'; the EDG-1 sentence says only 'cells'

EDG-3 = target: T2, EDG-3 (Homo sapiens, UniProt Q99500); assay: Antagonistic activity for EDG-3 (S1P-induced intracellular calcium, CHO cells); assay type: cell-based; settings: CHO cells expressing EDG-3, S1P 100 nM
T2 construct: expressed in transfected cells; host or cells: CHO inferred from 'method as in EDG-5'

human EDG-5 = target: T3, human EDG-5 (Homo sapiens, UniProt O95136); assay: Antagonistic activity for EDG-5 (S1P-induced intracellular calcium, CHO cells); assay type: cell-based; settings: CHO cells expressing human EDG-5, S1P 100 nM
T3 construct: expressed in transfected cells; host or cells: CHO cells
Experimental: Chinese hamster ovary (CHO) cells which expressed excessively human EDG-5 gene were cultured using a Ham's F12 medium (GIBCO BRL) containing 10% FBS (fetal bovine serum), penicillin/streptomycin, and blasticidin (5 μg/ml). Cultured cells were incubated in a Fura2 (5 μM) -AM solution [Ham's F12 medium containing FBS (10%), HEPES buffer (20 mM, pH7.4), and probenecid (2.5 mM)] at 37° C. for 60 minutes. Then washed once with a Hank's solution (2.5 mM) containing probenecid and immersed into the same solution. A plate was set on a fluorescent drug screening system, and measured for 30 seconds with no stimulation, a solution of a compound (dimethyl sulfoxide solution of 1 nM to 10 μM at the final concentration) to be tested was added. After lapse of 5 minutes, S1P (final concentration: 100 nM) was added, the intracellular calcium ion concentration before and after the addition was measured every 3 seconds (excitation wave length: 340 nm and 380 nm; fluorescent wave length: 500 nm). […]

[1] = test system: isolated trachea of guinea pig; assay: Constriction of isolated trachea of guinea pig (magnus tube)
Experimental: The trachea of euthanized male Hartley ginea pig was removed and immersed quickly in Krebs-Henseleit solution (112 mmol/L sodium chloride, 5.9 mmol/L potassium chloride, 2.0 mmol/L calcium chloride, 1.2 mmol/L magnesium chloride, 1.2 mmol/L monobasic sodium phosphate, 25.0 mmol/L sodium hydrogen carbonate NaHCO3, 11.5 mmol/L glucose, 4° C.). A removed tissue was hooked as helical sample in magnus tube (volume: 10 mL) filled with Krebs-Henseleit solution (37±1° C., [aerated with 95% O2+5% CO2]). After stabilizing for 60 minutes in tensioned condition with 1 g, contraction was measured by recorder from force displacement transducer via distortion amplifier. The contraction of control was obtained by high concentration solution of potassium chloride (sodium chloride in Krebs-Henseleit solution was all exchanged to potassium chloride), or by stimulation with leukotriene D4 (LTD4) or histamine. After contraction by S1P, EDG-5 antagonist was added. Washing process of a specimen was repeated just in time, after hooked in magnus tube.

anesthetized guinea pig [2] = assay: Inhibition of S1P-induced increase of airway resistance of anesthetized guinea pig in vivo; settings: S1P 0.1 mg/mL inhaled; compound intravenously injected after increase of airway resistance
Experimental: The measurement of guinea pig airway resistance was carried out by the modified Konzett and Rossler method (Naunyn-Schmied. Arch. Exp. Path. Pharmak. 195, 71- ). Male Hartley guinea pigs (5 to 7 weeks-old, 300 to 500 g body weight in use) were anesthetized by pentobarbital (50 mg/kg intraabdominal dosage), and fixed at dorsal position. Then, trachea and jugular were cannulated. Airway was managed by a respirator (5 mL/stroke, 60 strokes/min) and air road was diverged with a T-tube and connected to broncho-spasm-transducer and airway resistance was measured. To guinea pigs, gallamine (1 mg/kg, i.v.) was administered and immobilized. S1P was vaporized and inhaled with supersonic wave type nebulizer for five minutes (Jpn. J. Pharm. 50, 445-466 (1989)). S1P (0.1 mg/mL) was inhaled to the anesthetized guinea pig, and airway resistance was measured. After a increase of strong airway resistance was recognized, compound 1 was intravenously injected.

[3] = test system: Normal human airway smooth muscle cells; assay: DNA synthesis (BrdU incorporation) of human airway smooth muscle cells induced by S1P; assay type: cell-based
Experimental: Normal human airway smooth muscle cells (BMSC; BioWhittaker) were cultured using MEM-A medium (GIBCO) containing 10% FBS (fetal calf serum), gentamicin (50 μg/mL), amphotericin B (50 ng/mL), and human bFGF, human insulin for 24 hours and deoxybromouridine (BrdU) was added.
Normal human airway smooth muscle cells (BMSC; BioWhittaker) were plated in 96 well plate using MEM-α medium containing human insulin at density of 1×10^4 cells/well. After 24 hour incubation, wash 2 times with Hanks solution, and serum-free medium (MEM-α/gentamicin (50 μg/mL), amphotericin B (50 ng/mL)) was added and incubated for 24 hours. S1P was added at the final concentration of 0.03 μM to 10 μM, deoxybromouridine (BrdU) was added at the same time, and incubated for 6 hours, and then the activity of BrdU incorporation was measured. As control, equal volume of physiological salt solution, which is vehicle of S1P, was added.
Cells were treated with BrdU, and culture supernatant was discarded. 150 μL of Cell fixation·DNA denaturation buffer was added to each well and incubated for 30 minutes. Cell fixation·DNA denaturation buffer was removed and blocking buffer (150 μL) was added. […] After 15 minutes, 25 μL of 2N sulfuric acid was added and absorbance at 450 nm was measured. […]

[4] = test system: human airway smooth muscle cells; assay: Cell toxicity assessment using released LDH; assay type: cell-based; settings: released LDH as indicator
anesthetized guinea pig [5] = assay: Airway resistance of anesthetized guinea pig after inhalation (modified Konzett and Rossler method); assay type: in vivo; settings: for increase of airway resistance: inhalation for five minutes, 0.01 to 1 mg/mL, S1P effect at 0.1 to 1 mg/mL
Experimental: (§1) The measurement of guinea pig airway resistance was carried out by the modified Konzett and Rossler method (Naunyn-Schmied. Arch. Exp. Path. Pharmak. 195, 71- ). Male Hartley guinea pigs (5 to 7 weeks-old, 300 to 500 g body weight in use) were anesthetized by pentobarbital (50 mg/kg intraabdominal dosage), and fixed at dorsal position. Then, trachea and jugular were cannulated. Airway was managed by a respirator (5 mL/stroke, 60 strokes/min) and air road was diverged with a T-tube and connected to broncho-spasm-transducer and airway resistance was measured. To guinea pigs, gallamine (1 mg/kg, i.v.) was administered and immobilized. In this connection, acetylcholine was administered (30 μg/kg, i.v.) before inhalation of a compound in order to ascertain that that there was no considerable difference in sensitivity of transient airway constriction between individual animals, and then, animals which have coordinative sensitivity were used. S1P (Alexis) was vaporized and inhaled with supersonic wave type nebulizer (Omron NE U-07) for five minutes (Jpn. J. Pharm. 50, 445-466 (1989)). Complete obstruction (total area) was calculated as area as follows; deduct the value of airway resistance at startup of S1P inhalation from the value of airway resistance that is obtained at the time of clamping the tube of tracheal cannula side, and obtained value is multiplied by 10 minutes (5 minutes for inhalation and 5 minutes for post-inhalation). […] S1P (0.01 to 1 mg/mL) was inhaled to anesthetized guinea pig and airway resistance was measured. The reference example was carried out using 10% meylon and sphingosine (Matreya, 0.01 to 1 mg/mL) with method described in example 1.

anesthetized guinea pig [6] = assay: Airway resistance of guinea pig after intravenous administration; assay type: in vivo; settings: injected intravenously
Experimental: Male guinea pigs (Standard Hartley, 5 to 7 weeks-old, 300 to 500 g body weight in use) were anesthetized by pentobarbital (50 mg/kg intraabdominal dosage), and fixed at dorsal position. Then, trachea and jugular were cannulated. S1P was injected intravenously, and airway resistance was measured as described in Example 1.

anesthetized guinea pig [7] = assay: Effect of pre-treatment on increase of airway resistance induced by S1P; assay type: in vivo; settings: pretreatment 100 μg/mL, i.v.
Experimental: as §1, with “S1P (Alexis) was vaporized and inhaled with supersonic wave type nebulizer (Omron NE U-07) for five minutes (Jpn. J. Pharm. 50, 445-466 (1989)).” left out, “The reference example was carried out using 10% meylon and sphingosine (Matreya, 0.01 to 1 mg/mL) with method described in example 1.” left out

T2 sequence (Q99500 whole entry): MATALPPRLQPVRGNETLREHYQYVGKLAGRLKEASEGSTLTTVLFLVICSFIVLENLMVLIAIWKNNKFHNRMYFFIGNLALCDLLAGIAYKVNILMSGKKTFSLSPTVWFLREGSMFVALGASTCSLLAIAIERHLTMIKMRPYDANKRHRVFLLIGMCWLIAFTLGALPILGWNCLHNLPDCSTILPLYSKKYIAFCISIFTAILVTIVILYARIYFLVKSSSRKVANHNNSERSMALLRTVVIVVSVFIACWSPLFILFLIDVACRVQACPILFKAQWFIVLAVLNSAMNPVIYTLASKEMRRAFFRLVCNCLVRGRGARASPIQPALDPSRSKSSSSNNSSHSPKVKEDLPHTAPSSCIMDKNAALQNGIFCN
T3 sequence (O95136 whole entry): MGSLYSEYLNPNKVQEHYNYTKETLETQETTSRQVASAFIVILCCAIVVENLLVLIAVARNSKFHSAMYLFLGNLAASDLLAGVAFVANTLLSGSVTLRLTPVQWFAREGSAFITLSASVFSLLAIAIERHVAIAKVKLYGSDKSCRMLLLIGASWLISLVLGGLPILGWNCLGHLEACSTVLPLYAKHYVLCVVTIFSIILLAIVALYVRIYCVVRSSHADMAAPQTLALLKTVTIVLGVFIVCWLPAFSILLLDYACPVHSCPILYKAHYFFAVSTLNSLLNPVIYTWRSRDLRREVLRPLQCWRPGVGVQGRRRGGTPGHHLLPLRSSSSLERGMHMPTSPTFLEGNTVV
T1 sequence (P21453 whole entry): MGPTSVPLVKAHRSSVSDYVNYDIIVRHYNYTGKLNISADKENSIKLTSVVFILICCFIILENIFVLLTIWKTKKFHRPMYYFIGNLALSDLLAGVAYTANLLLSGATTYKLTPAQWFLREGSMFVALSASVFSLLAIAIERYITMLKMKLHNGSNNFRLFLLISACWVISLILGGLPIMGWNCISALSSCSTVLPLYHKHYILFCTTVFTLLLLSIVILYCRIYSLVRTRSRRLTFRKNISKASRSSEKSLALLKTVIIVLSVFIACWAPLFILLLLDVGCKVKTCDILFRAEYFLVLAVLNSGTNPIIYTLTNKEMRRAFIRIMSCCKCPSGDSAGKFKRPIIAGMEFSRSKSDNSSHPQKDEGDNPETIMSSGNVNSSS

## Cc1nn(C)c2nc(NNC(=O)Nc3c(Cl)cncc3Cl)cc(C(C)C)c12 [Compound 1, N-(1H-1,3-dimethyl-4-isopropylpyrazolo[3,4-b]pyridine-6-yl)amino-N′-(3,5-dichloropyridine-4-yl)urea]
Human EDG-1
  IC50: > 10 µM
EDG-3
  IC50: > 10 µM
Human EDG-5
  IC50: 0.01 µM
[1]; added after contraction by S1P
  inhibition of constriction induced by S1P: inhibited constriction induced by S1P
Anesthetized guinea pig [2]
  inhibition of increase of airway resistance induced by S1P: inhibited
[3]; compound 0.01 μM to 10 μM, S1P 3 μM, 6 hours
  antagonism of S1P-induced BrdU incorporation: antagonized against S1P
[4]
  LDH activity in medium: did not enhancement LDH activity in medium

## CCCCCCCCCCCCC/C=C/[C@@H](O)[C@@H](N)COP(=O)(O)O [Compound S1P, (2S, 3R, 4E)-2-amino-3-hydroxyoctadeca-4-enyl-1 phosphate]
Anesthetized guinea pig [5]; inhalation 0.01 to 1 mg/mL, converted to number of moles
  increasing effect on airway resistance compared with inhalation of histamine: at the same level
Anesthetized guinea pig [5]
  increase of airway resistance: strong increase of airway resistance was observed
Anesthetized guinea pig [6]
  increase of airway resistance: Increase of airway resistance was observed
  increase of airway resistance compared with histamine: slight compared with that of histamine
[1]; S1P 10 μmol/L
  contraction of guinea pig trachea: very slow contraction
  rate of contraction relative to other constricting drug (LTD4, histamine etc.): 3 to 5 fold slower
  time to plateau of contraction: 30 to 60 min
[3]; S1P 0.03 μM to 10 μM, BrdU 6 hours
  DNA synthesis of human airway smooth muscle cells: induces DNA synthesis

## NCCc1c[nH]cn1 [histamine]
Anesthetized guinea pig [5]
  increase of airway resistance: increase of airway resistance
Anesthetized guinea pig [6]
  increase of airway resistance: increase

## CC(C)(C)NCC(O)c1ccc(O)c(CO)c1 (stereo not shown) [salbutamol]
Anesthetized guinea pig [7]
  inhibition of increase of airway resistance induced by S1P: inhibited only partially

## CCCCCCCCCCCCC/C=C/[C@@H](O)[C@@H](N)CO [sphingosine]
Anesthetized guinea pig [5]
  increase of airway resistance: increase of airway resistance was not observed
